Source: patent US20220280513A1, “ENHANCING THE ANTIVIRAL EFFICACY OF RNA VIRUS INHIBITION BY COMBINATION WITH MODULATORS OF PYRIMIDINE METABOLISM” (The Board of Trustees of the Leland Stanford Junior …, priority 2019, published 2022)

How the values were obtained:
[1] = tested on: intracellular uridine and cytidine nucleotide levels; experiment: LC-MS/MS analysis of intracellular nucleotides in A549 cells; assay type: cell-based; details: 250 μM with 1 μM GSK983, 5 μM uridine, 6 h
Protocol: FIG. 7. LC-MS analysis of intracellular nucleotides. (A) LC-MS analysis of intracellular uridine and cytidine nucleotide levels after 6 h treatments. In all assays, the culture medium was supplemented with 5 μM uridine and 1 μM GSK983. Error bars represent ±S.D. of two replicates. (B) LC-MS detection of mono-, di- and tri-phosphates of CPU and 5-F-CPU in cells. LC-MS/MS was performed on an Agilent 1290 infinity II LC system tandem with 6370 triple quad mass spectrometer using ion pairing chromatography. LC separation was performed at 40° C. with a solvent flow rate of 0.25 mL/min on a Zorbax RRHD Extended-C18 column (2.1×150 mm, 1.8 μM). Buffer A contained 97% H2O, 3% MeOH, 5 mM tributylamine, 5.5 mM Acetic acid and 1 μM medronic acid with pH=5.0; Buffer B contains ca. 100% MeOH, 5 mM tributylamine, 5.5 mM Acetic acid and 5 μM medronic acid with pH=7.0 The initial mobile phase composition was 100% solvent A, and a constant or linear gradient was applied after sample injection with eluent B varying as follows: 0% at 2.5 min, 20% at 7.5 min, 45% at 14 min, 99% at 20 to 23 min, and 0% from 23.1 to 27.1 min. […] Samples were measured in the negative ESI mode with capillary voltage at −3.5 kV. […]
With optimized sampling and detection method in hand, pyrimidine nucleotide levels were measured in cells cultured with either 250 μM CPU, 5-F-CPU or 5′-F-CPU in combination with 1 μM GSK983 (FIG. 7A). […]

DENV-2 virus = experiment: Pilot antiviral assay, DENV-Luc replication in A549 cells (FIG. 2); assay type: cell-based, dengue serotype 2 (DENV-2) strain 16681
Protocol: We therefore focused our efforts on evaluating CPU in combination with GSK983. Using an infectious clone of dengue serotype 2 (DENV-2) strain 16681 engineered to express a luciferase reporter, the efficacy and cytotoxicity of combinations of GSK983 and CPU were assessed in infected or uninfected cultures of the A549 lung carcinoma cell line (FIG. 2). […] However, a combination of 0.2 μM GSK and 250 μM CPU inhibited ca. 50% of virus replication.
DENV-Luc reporter virus generation: The design of the pDENV-Luc infectious clone derived from dengue serotype 2 (DENV-2) strain 16681 was described in detail by Marceau et al (Marceau et al., 2016). The plasmid was linearized with Xbal and in vitro transcribed into the genomic RNA of DENV-Luc virus using the T7 Megascript Kit (Ambion) in the presence of m7G(5′)ppp(5′)G RNA Cap Structure Analog (NEB). 5 μg DENV-Luc RNA was electroporated into 2×10^6 Vero cells. The transfected cells were resuspended with Dulbecco's modified Eagle's medium (DMEM; Invitrogen) with 10% FBS and 100 U/ml penicillin-streptomycin and transferred into a T-175 flask incubated at 37° C. with 5% CO2. Supernatants were collected and replenished with fresh medium every 24 h from day 17 to 24 post-transfection, pooled together, clarified by centrifugation and stored in aliquots at −80° C. The amount of infectious DENV-Luc virus in the stock was titrated using the TCID50 assay and calculated by the Spearman & Kärber algorithm as described previously (Hierholzer and Killington, 1996).
Pilot Antiviral Assays (for FIG. 2): A549 cells were plated overnight at 20,000 cells/well in 24-well plates in complete DMEM and incubated for 24 h at 37° C. Cell were then treated with pyrimidine de novo synthesis and/or salvage inhibitors in DMEM supplemented with 20 μM uridine. Four hours after drug addition, cells were infected with DENV-2 virus at a MOI=0.01. After 48 h, DENV-Luc replication was monitored by the production of Renilla luciferase, which was measured using the Renilla-Glo Luciferase Assay System (Promega) according to the specifications of the manufacturer. For the accompanying cell viability assay, A549 cells were seeded into 24-well plates at a density of 20,000 cells/well incubated for 24 h at 37° C. Cell were then treated with pyrimidine de novo synthesis and/or salvage inhibitors in DMEM supplemented with 20 μM uridine. Following 48h treatment, cells were harvested, and the density of viable cells was determined by flow cytometry (FSC/SSC) using a BD Accuri C6 Flow Cytometer.

Structure (SMILES): O=c1ccn([C@@H]2C=C(CO)[C@@H](O)[C@H]2O)c(=O)[nH]1 [CPU, 1-((1R,4R,5S)-4,5-dihydroxy-3-(hydroxymethyl)cyclopent-2-en-1-yl)pyrimidine-2,4(1H,3H)-dione]
- depletion of UTP and CTP concentrations [1]: more strongly than 5-F-CPU
- decrease of DENV-2 titer, synergy (DENV-2 virus; CPU combined with GSK983, exogenous uridine): synergized with GSK983
- virus replication (DENV-2 virus; CPU dose of 1 mM in combination with GSK, 20 μM exogenous uridine): suppressed almost completely
- inhibition of replication of DENV-2 virus, single agent (DENV-2 virus; alone, 20 μM exogenous uridine): neither GSK nor CPU alone inhibited replication
- inhibition of virus replication (DENV-2 virus; combination of 0.2 μM GSK and 250 μM CPU, 20 μM exogenous uridine): ca. 50%
